These results are taken from patent US10167262B2, “Herbicidal substituted 3-arylpyrazoles” (FMC CORPORATION, priority 2014, dated 2019).

Common to all, as to experiment: Test E pre-/postemergence greenhouse test, plant response rating 0-100
What all share (type): in vivo

In experiment [1] the test system is surinam grass (Brachiaria decumbens). The conditions noted are these: Preemergence, scale 0 to 100. Put shortly:
(§1)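 Preemergence application to planted silt loam and postemergence application to 2–18 cm seedlings are run simultaneously. Evaluation is visual against controls after 14 to 21 days, scored from 0 (no effect) to 100 (complete control).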

The subject of experiment [2] is ragweed (common ragweed, Ambrosia elatior). The conditions noted are these: Preemergence, scale 0 to 100. In short, it runs like this: as §1
Experiment [3] relates to velvetleaf (Abutilon theophrasti). The conditions noted are these: Preemergence, scale 0 to 100. In short, it runs like this: as §1
In another experiment the test system is kochia (Kochia scoparia). The conditions noted are these: Preemergence, scale 0 to 100. In short, it runs like this:
as §1

The test system of experiment [4] is large (Lg) crabgrass (Digitaria sanguinalis). The conditions noted are these: Preemergence, scale 0 to 100.
The test system of experiment [5] is smartweed (ladysthumb smartweed, Polygonum persicaria). The conditions noted are these: scale 0 to 100; for Smartweed plant response rating: Preemergence.
Experiment [6] has as its system nightshade (eastern black nightshade, Solanum ptycanthum). The conditions noted are these: Preemergence, scale 0 to 100. In short, it runs like this: as §1
Experiment [7] deals with lambsquarters (Chenopodium album). The conditions noted are these: Preemergence, scale 0 to 100. Put shortly:
as §1

The subject of experiment [8] is smartweed (ladysthumb smartweed, Polygonum persicaria). The conditions noted are these: Postemergence, scale 0 to 100.

`COCC(=O)n1cc(C(=O)c2ccccc2)c(-c2cc(Cl)cc(Cl)c2)n1` [Compound 16, 1-[4-benzoyl-3-(3,5-dichlorophenyl)-1H-pyrazol-1-yl]-2-methoxyethanone]: the “Surinam Grass plant response rating” value in experiment [1] (31 g ai/ha), in experiment [1] (62 g ai/ha), in experiment [1] (125 g ai/ha), in [1] (250 g ai/ha) and in [1] (500 g ai/ha) was 0 in each case. In addition, the “Ragweed plant response rating” value in [2] (31 g ai/ha) is 0; in experiment [2] (62 g ai/ha), 0; in experiment [2] (125 g ai/ha) it was 85; in experiment [2] (250 g ai/ha), 90; in [2] (500 g ai/ha), 98. For the same compound, the “Velvetleaf plant response rating” value in [3] (31 g ai/ha) came out at 0; in experiment [3] (62 g ai/ha), 40; in experiment [3] (125 g ai/ha), 85; in experiment [3] (250 g ai/ha), 100; in [3] (500 g ai/ha), 100. Further, the “Kochia plant response rating” value with kochia (Kochia scoparia) (31 g ai/ha) is given as 0; in the experiment on kochia (Kochia scoparia) (62 g ai/ha), 0; with kochia (Kochia scoparia) (125 g ai/ha) it was 0; in the experiment on kochia (Kochia scoparia) (250 g ai/ha), 50; in the experiment on kochia (Kochia scoparia) (500 g ai/ha), 75. For the same compound, the “Crabgrass, Large plant response rating” value in experiment [4] (31 g ai/ha), in [4] (62 g ai/ha), in experiment [4] (125 g ai/ha), in experiment [4] (250 g ai/ha) and in experiment [4] (500 g ai/ha) was 0 throughout. Further, the “Smartweed plant response rating” value in [5] (31 g ai/ha) was 0; in experiment [5] (62 g ai/ha), 0; in experiment [5] (125 g ai/ha) it was 100; in [5] (250 g ai/ha) it was 100; in [5] (500 g ai/ha), 100.

As to `CCn1cc(C(=O)c2cccs2)c(-c2cc(Cl)cc(Cl)c2)n1` [Compound 18], the “Plant response rating, Smartweed” value in experiment [5] (Postemergence, 500 g ai/ha) stood at 20.

As to `O=Cn1cc(C(=O)c2ccccc2)c(-c2cc(Cl)cc(Cl)c2)n1` [Compound 28], the “Surinam Grass plant response rating” value in experiment [1] (31 g ai/ha), in experiment [1] (62 g ai/ha), in experiment [1] (125 g ai/ha), in experiment [1] (250 g ai/ha) and in experiment [1] (500 g ai/ha) was 0 throughout. Also, the “Nightshade plant response rating” value in experiment [6] (31 g ai/ha), in experiment [6] (62 g ai/ha), in [6] (125 g ai/ha), in [6] (250 g ai/ha) and in experiment [6] (500 g ai/ha) was 0 in each case. The “Ragweed plant response rating” value in experiment [2] (31 g ai/ha) is 0; in experiment [2] (62 g ai/ha) it was 0; in experiment [2] (125 g ai/ha), 30; in experiment [2] (250 g ai/ha) it was 65; in experiment [2] (500 g ai/ha) it was 70. Also, the “Velvetleaf plant response rating” value in [3] (31 g ai/ha) was 0; in experiment [3] (62 g ai/ha), 0; in experiment [3] (125 g ai/ha), 0; in experiment [3] (250 g ai/ha), 40; in experiment [3] (500 g ai/ha), 100. Also, the “Kochia plant response rating” value with kochia (Kochia scoparia) (31 g ai/ha) was 15; in the experiment on kochia (Kochia scoparia) (62 g ai/ha) it was 20; with kochia (Kochia scoparia) (125 g ai/ha) it was 40; with kochia (Kochia scoparia) (250 g ai/ha), 40; in the experiment on kochia (Kochia scoparia) (500 g ai/ha) it was 85. Also, the “Lambsquarters plant response rating” value is recorded as 0 in [7] (31 g ai/ha); 95 in [7] (62 g ai/ha); 100 in [7] (125 g ai/ha); 100 in [7] (250 g ai/ha); 100 in experiment [7] (500 g ai/ha). For the same compound, the “Crabgrass, Large plant response rating” value in experiment [4] (31 g ai/ha), in [4] (62 g ai/ha), in experiment [4] (125 g ai/ha), in experiment [4] (250 g ai/ha) and in experiment [4] (500 g ai/ha) was 0 in each case.

With `CCn1cc(C(=O)c2ccccc2)c(-c2cc(Cl)cc(Cl)c2)n1` [Compound 31, [3-(3,5-dichlorophenyl)-1-ethyl-1H-pyrazol-4-yl]phenylmethanone], the “Surinam Grass plant response rating” value in experiment [1] (62 g ai/ha), in experiment [1] (125 g ai/ha), in experiment [1] (250 g ai/ha) and in [1] (500 g ai/ha) was 0 in each case. Besides, the “Nightshade plant response rating” value in [6] (62 g ai/ha) came to 0; in experiment [6] (125 g ai/ha), 0; in [6] (250 g ai/ha) it was 0; in [6] (500 g ai/ha), 50. The “Ragweed plant response rating” value in experiment [2] (62 g ai/ha) is recorded as 0; in [2] (125 g ai/ha), 35; in experiment [2] (250 g ai/ha), 50; in [2] (500 g ai/ha) it was 80. Moreover, the “Velvetleaf plant response rating” value in [3] (62 g ai/ha) is given as 65; in [3] (125 g ai/ha) it was 50; in [3] (250 g ai/ha) it was 80; in experiment [3] (500 g ai/ha), 80. Further, the “Kochia plant response rating” value amounted to 35 in the experiment on kochia (Kochia scoparia) (62 g ai/ha), 25 with kochia (Kochia scoparia) (125 g ai/ha), 50 in the experiment with kochia (Kochia scoparia) (250 g ai/ha) and 70 in the experiment with kochia (Kochia scoparia) (500 g ai/ha). In addition, the “Lambsquarters plant response rating” value is 0 in experiment [7] (62 g ai/ha), 100 in experiment [7] (125 g ai/ha), 100 in [7] (250 g ai/ha) and 100 in [7] (500 g ai/ha). In addition, the “Crabgrass, Large plant response rating” value in experiment [4] (62 g ai/ha), in experiment [4] (125 g ai/ha), in experiment [4] (250 g ai/ha) and in experiment [4] (500 g ai/ha) was 0 in each case.

For `Fc1cccc(NN=C(c2ccccc2)c2c[nH]nc2-c2cc(Cl)cc(Cl)c2)c1` [Compound 58], the “Plant response rating, Smartweed” value in [8] (31 g ai/ha) worked out at 0; in [8] (125 g ai/ha), 50.

As to `C=CCn1cc(C(=O)c2ccccc2)c(-c2cc(Cl)cc(Cl)c2)n1` [Compound 60], the “Plant response rating, Smartweed” value in experiment [8] (31 g ai/ha), in experiment [8] (62 g ai/ha), in [8] (125 g ai/ha) and in experiment [8] (250 g ai/ha) was 0 each time.
